This series concerns CD20 positive Raji cells. Briefly: Selective transduction and Gancyclovir killing of CD20 positive Raji cells in a Raji/K-562 mixture. The note with it: 10 μM GCV; gfp transduced cells.

Method: The mutation of the MeV H protein comprises the four point mutations Y481A, R533A, S548L and F549S which ablates productive interactions with CD46 and SLAM, respectively. […] Furthermore, transduced cells can be detected by CD34 expression. In parallel, as a control, the same vector particles having packaged the go gene were applied.
For the generation of the vector particles calcium phosphate transfection was performed. 24 h before transfection, 6.5*10^6 HEK-293T cells were seeded into a T75 flask. 1 h before transfection the medium of the cells was exchanged against 7 ml fresh medium (DMEM with 4.5 g/l glucose, 3.7 g/l NaHCO3, 10% FCS, 1% glutamin). […]
The HmutscFvCD20Δ18/FcΔ30 pseudotyped HIV-1 vector particles either with packaged go gene or with packaged cd34tk39 gene were 1:5 diluted in 300 μl medium (RPMI 1640 with 2 g/l NaHCO3, 10% FCS, 1% glutamine) containing a mixture of 2*10^3 CD20+ Raji and 2*10^3 CD20− K-562 cells. […] Afterwards the percentages of CD20/GFP and CD20/CD34 double positive cells, respectively, were measured by FACS (time point 0 h in FIG. 18). […] At different time points the cells were stained with the respective antibodies and the double positive cells were measured by FACS (Dako Galaxy flow cytometry system; s. FIGS. 18A-18B).

With `Nc1nc(O)c2ncn(COC(CO)CO)c2n1` [GCV, Gancyclovir], the “Toxic effect of GCV by its own on the cells (CD20/GFP double positive fraction)” value is “no toxic effect”.

The values above are taken from patent US10415057B2, “Pseudotyping of retroviral vectors, methods for production and use thereof for targeted gene transfer and high throughput screening” (BUNDESREPUBLIK DEUTSCHLAND, LETZ[…], priority 2006, dated 2019).
